Patent US20050075375A1 (priority 2003, published 2005)
Where two headings read alike, the source gives them in different places.

Test system: monocistronic NK5.1 HCV replicon in Huh7 cells
Assay: HCV replicon assay, monocistronic replicon cell line
Assay type: cell-based, hepatitis C virus
Conditions: Hepatitis C virus, read-out: Mono EC50 Median
Text: HCV Replicon Assays (Replicon EC50 (μM))
HCV replication can be measured by a replicon assay such as described by Vrolijk et al, J. Virol. Methods 110:201(2003), which is hereby incorporated in its entirety by reference. The method was implemented as follows.
Monocistronic Replicon Cell Line:
Human hepatocyte Huh7 cells containing the monocistronic NK5.1 replicon were obtained from Ralf Bartenschlager at the University of Mainz, Germany. These cells were maintained under hygromycin selection and passaged when 80-90% confluent.
This cell line contains an autonomously replicating RNA element (replicon) incorporating the non-structural HCV elements necessary for replication, and upon which the survival of the replicon in the cell depends. This replicon contains a single internal ribosome entry site (HCV IRES). Inhibition of any of the critical HCV finctions by a compound leads to loss of the replicon as measured by HCV replicon RNA copy number reduction. The amount of HCV RNA present following a standard incubation with a compound is a measure of the anti-HCV activity of the compound. The assay was conducted by preparing sufficient 96-well plates containing these cells, wherein cells are seeded at 6000 cells/well in a 96-well plate, in 200 μl of final media volume. Cells were then incubated for 24 hours at 37 C., 5% CO2, and 95% humidity before compound was added. Six point half-log concentration response assays were conducted to determine potency/EC50 of Formula I compounds to inhibit HCV replicon replication. The final percent DMSO acceptable in this assay system is 0.6%. Compounds were diluted in media in an appropriate format and 5 μl of each drug dilution is added to each well. Cells were then incubated with compounds for 3 days at 37 C., 5% CO2, and 95% humidity. Following the three day incubation period, plates were washed twice with phosphate buffered saline to remove media and cells were lysed with Qiagen extraction buffer. RNA was extracted and isolated with the Qiagen RNAeasy kit according to the manufacturer's protocol (Qiagen). TaqMan One-Step RT-PCR was used in conjunction with an ABI 7700 Sequence Detector (Applied Biosystems) for the quantitation and analysis of HCV replicon RNA copy number. A GAPDH probe was used for internal normalization. The ratio of HCV RNA to cellular GAPDH RNA was determined and compared to the DMSO-only treated control, and the ratio of HCV RNA/GAPDH RNA was used for an EC50 determination and as a measure of specificity for inhibition of the HCV replicon.

[1] = Huh-7, 72 h, table T3 (compounds 471-640), monocistronic replicon in Huh7 cells, 3 days incubation, HCV RNA/GAPDH RNA by TaqMan RT-PCR
[2] = Huh-7, monocistronic NK5.1 HCV replicon in Huh7 cells, median value
[3] = Huh-7, 72 h, Table 1, monocistronic replicon in Huh7 cells, 3 days incubation, HCV RNA/GAPDH RNA by TaqMan RT-PCR

Row | SMILES | EC50 [1] | EC50 [2] | EC50 [3]
1 | Cc1cccnc1-c1nc(-c2cc(Br)ccc2O)n(C)n1 [Compound 612, 4-Bromo-2-[2-methyl-5-(3-methyl-pyridin-2-yl)-2H-[1,2,4]triazol-3-yl]-phenol] | 2.4 µM | – | –
2 | Oc1ccc2ccccc2c1-c1nnc(-c2ccccc2C(F)(F)F)o1 [Compound 306, 1-[5-(2-Trifluoromethyl-phenyl)-[1,3,4]oxadiazol-2-yl]-naphthalen-2-ol] | – | 26 µM | –
3 | COc1ccc(-c2nc(-c3ncccc3Br)no2)c(O)c1 [Compound 259, 2-[3-(3-Bromo-pyridin-2-yl)-[1,2,4]oxadiazol-5-yl]-5-methoxy-phenol] | – | 2.5 µM | –
4 | CN(C)c1ccc(-c2nc(-c3ccccn3)no2)c(O)c1 [Compound 163, 5-Dimethylamino-2-(3-pyridin-2-yl-[1,2,4]oxadiazol-5-yl)-phenol] | – | – | 1.5 µM
5 | Oc1ccc2ccccc2c1-c1nc(-c2ccc(C(F)(F)F)cn2)no1 [Compound 221, 1-[3-(5-Trifluoromethyl-pyridin-2-yl)-[1,2,4]oxadiazol-5-yl]-naphthalen-2-ol] | – | 4.8 µM | 4.8 µM
6 | CC(C)(C)OC(=O)Nc1ccc(-c2noc(-c3cc(Br)ccc3O)n2)nc1 [Compound 244, {6-[5-(5-Bromo-2-hydroxy-phenyl)-[1,2,4]oxadiazol-3-yl]-pyridin-3-yl}-carbamic acid tert-butyl ester] | – | 7.3 µM | 7.3 µM
7 | COc1ccc(-c2nc(-c3ncccc3-c3ccccc3)no2)c(O)c1 [Compound 235, 5-Methoxy-2-[3-(3-phenyl-pyridin-2-yl)-[1,2,4]oxadiazol-5-yl]-phenol] | – | 2.3 µM | 2.3 µM
8 | Cc1cc(-c2c(O)ccc3ccccc23)nn1-c1ccccn1 [Compound 28, 1-(5-Methyl-1-pyridin-2-yl-1H-pyrazol-3-yl)-naphthalen-2-ol] | – | – | > 19 µM
9 | COc1ccc(O)c(-c2nc(-c3cnccn3)n[nH]2)c1 [Compound 578, 4-Methoxy-2-(5-pyrazin-2-yl-2H-[1,2,4]triazol-3-yl)-phenol] | > 32 µM | – | –
10 | Cc1cc(-c2c(O)ccc3ccccc23)nn1-c1ccccc1 [Compound 4, 1-(5-Methyl-1-phenyl-1H-pyrazol-3-yl)-naphthalen-2-ol] | – | – | > 19 µM
11 | Oc1ccc(O)c(-c2nc(-c3ncccc3C(F)(F)F)n[nH]2)c1 [Compound 546, 4-Hydroxy-2-[5-(3-trifluoromethyl-pyridin-2-yl)-2H-[1,2,4]triazol-3-yl]-phenol] | > 19 µM | – | –
12 | CCOc1cccc(-c2nc(-c3ccc(C(F)(F)F)cn3)no2)c1O [Compound 269, 2-Ethoxy-6-[3-(5-trifluoromethyl-pyridin-2-yl)-[1,2,4]oxadiazol-5-yl]-phenol] | – | 35.9 µM | –
13 | COc1ccc(Br)cc1-c1nc(-c2ccc(C(F)(F)F)cn2)n[nH]1 [Compound 529, 2-[5-(5-Bromo-2-methoxy-phenyl)-1H-[1,2,4]triazol-3-yl]-5-trifluoromethyl-pyridine] | > 19 µM | – | –
14 | CCCNC(=O)c1cc(-c2ccc(OC)cc2)nn1-c1ccccn1 [Compound 62] | – | – | > 32 µM
15 | Clc1ccccc1-c1nc(-c2ccccn2)n[nH]1 [Compound 472, 2-[5-(2-Chloro-phenyl)-1H-[l,2,4]triazol-3-yl]-pyridine] | > 32 µM | – | –
16 | Cc1cccnc1-c1noc(-c2cc(NC(=O)c3ccccc3)ccc2O)n1 [Compound 290, N-{4-Hydroxy-3-[3-(3-methyl-pyridin-2-yl)-[1,2,4]oxadiazol-5-yl]-phenyl}-benzamide] | – | 2.8 µM | –
17 | Cc1cccc(-c2n[nH]c(-c3ccccc3Br)n2)n1 [Compound 462, 2-[5-(2-Bromo-phenyl)-1H-[1,2,4]triazol-3-yl]-6-mehtyl-pyridine] | – | > 32 µM | –
18 | COc1ccc(-c2nc(-c3ncccc3C(F)(F)F)no2)c(O)c1 [Compound 211, 5-Methoxy-2-[3-(3-trifluoromethyl-pyridin-2-yl)-[1,2,4]oxadiazol-5-yl]-phenol] | – | 11 µM | 11 µM
19 | COc1ccc(F)c(-c2nc(-c3ccc(C(F)(F)F)cn3)n[nH]2)c1 [Compound 524, 2-[5-(2-Fluoro-5-methoxy-phenyl)-1H-[1,2,4]triazol-3-yl]-5-trifluoromethyl-pyridine] | > 19 µM | – | –

Row | SMILES | EC50 [1] | EC50 [2] | EC50 [3]
20 | Oc1ccc(Cl)cc1-c1nc(-c2ccccn2)no1 [Compound 145, 4-Chloro-2-(3-pyridin-2-yl-[1,2,4]oxadiazol-5-yl)-phenol] | – | – | 2.3 µM
21 | COc1ccc(-c2nc(-c3ccc(C(F)(F)F)cn3)no2)c(O)c1 [Compound 222, 5-Methoxy-2-[3-(5-trifluoromethyl-pyridin-2-yl)-[1,2,4]oxadiazol-5-yl]-phenol] | – | > 32 µM | > 32 µM
22 | COc1ccc(-c2nc(-c3cnccn3)n[nH]2)c(O)c1 [Compound 584, 5-Methoxy-2-(5-pyrazin-2-yl-2H-[1,2,4]triazol-3-yl)-phenol] | > 32 µM | – | –
23 | CCOc1cccc(-c2nc(-c3ncccc3C(F)(F)F)n[nH]2)c1O [Compound 536, 6-Ethoxy-2-[5-(3-trifluoromethyl-pyridin-2-yl)-2H-[1,2,4]triazol-3-yl]-phenol] | > 19 µM | – | –
24 | Oc1cc(OCc2ccccc2)ccc1-c1nc(-c2cnccn2)n[nH]1 [Compound 581, 5-Benzyloxy-2-(5-pyrazin-2-yl-2H-[1,2,4]triazol-3-yl)-phenol] | > 32 µM | – | –
25 | Oc1ccc(Br)cc1-c1nc(-c2cnccn2)n[nH]1 [Compound 582, 4-Bromo-2-(5-pyrazin-2-yl-2H-[1,2,4]triazol-3-yl)-phenol] | 18 µM | – | –
26 | Cc1ccccc1-c1nnc(-c2ncccc2C(F)(F)F)o1 [Compound 340, 2-(5-o-Tolyl-[1,3,4]oxadiazol-2-yl)-3-trifluoromethyl-pyridine] | – | > 32 µM | –
27 | O=C(O)c1cc(-c2ccc3ccccc3c2)n(-c2ncccc2C(F)(F)F)n1 [Compound 79, 5-Naphthalen-2-yl-1-(3-trifluoromethyl-pyridin-2-yl)-1H-pyrazole-3-carboxylic acid] | – | – | > 32 µM
28 | COc1ccc(O)c(-c2ccn(-c3ncccc3C)n2)c1 [Compound 93, 4-Methoxy-2-[l-(3-methyl-pyridin-2-yl)-1H-pyrazol-3-yl]-phenol] | – | – | 9.1 µM
29 | Fc1ccccc1-c1nnc(-c2ccccc2F)o1 [Compound 333, 2,5-Bis-(2-fluoro-phenyl)-[1,3,4]oxadiazole] | – | > 32 µM | –
30 | Oc1c(-c2nc(-c3ncccn3)n[nH]2)ccc2ccccc12 [Compound 574, 2-(5-Pyrimidin-2-yl-2H-[1,2,4]triazol-3-yl)-naphthalen-1-ol] | > 32 µM | – | –
31 | COc1ccc(-c2nc(-c3ncccc3[N+](=O)[O-])no2)c(O)c1 [Compound 170, 5-Methoxy-2-[3-(3-nitro-pyridin-2-yl)-[1,2,4]oxadiazol-5-yl]-phenol] | – | – | 12 µM
32 | Fc1cc(Br)ccc1-c1nc(-c2ccc(C(F)(F)F)cn2)n[nH]1 [Compound 528, 2-[5-(4-Bromo-2-fluoro-phenyl)-1H-[1,2,4]triazol-3-yl]-5-trifluoromethyl-pyridine] | > 19 µM | – | –
33 | COc1cc(Br)cc(-c2nc(-c3ncccc3C)no2)c1O [Compound 242, 4-Bromo-2-methoxy-6-[3-(3-methyl-pyridin-2-yl)-[1,2,4]oxadiazol-5-yl]-phenol] | – | 8.3 µM | 8.3 µM
34 | COc1ccc(O)c(-c2nc(-c3ccc(NC(C)=O)cn3)n[nH]2)c1 [Compound 595, N-{6-[5-(5-methoxy-2-hydroxy-phenyl)-1H-[1,2,4]triazol-3-yl]-pyridin-3-yl}-acetamide] | 41.8 µM | – | –
35 | Cc1cccnc1-c1n[nH]c(-c2ccc(OCc3ccccc3)cc2O)n1 [Compound 447, 5-Benzyloxy-2-(5-(3-methyl-pyridin-2-yl)-2H-[1,2,4]triazol-3-yl)-phenol] | – | > 10 µM | –
36 | FC(F)(F)c1cccnc1-c1n[nH]c(-c2c(Cl)cccc2Cl)n1 [Compound 551, 2-[5-(2,6-Dichloro-phenyl)-1H-[1,2,4]triazol-3-yl]-3-trifluoromethyl-pyridine] | > 19 µM | – | –
37 | Cc1ccccc1-c1nnc(-c2ncc(C(F)(F)F)cc2Cl)o1 [Compound 341, 3-Chloro-2-(5-o-tolyl-[1,3,4]oxadiazol-2-yl)-5-trifluoromethyl-pyridine] | – | 20 µM | –
38 | COc1ccc(O)c(-c2cc(-c3ncccc3C)on2)c1 [Compound 132, 4-Methoxy-2-[5-(3-methyl-pyridin-2-yl)-isoxazol-3-yl]-phenol] | – | – | 2 µM
